According to publication PMC1951785, “Enlightening Energy Parasitism by Analysis of an ATP/ADP Transporter from Chlamydiae” (PLoS Biology, 2007):

T1: PamNTT1 (Candidatus Protochlamydia amoebophila, UniProt Q70GF7)
T1 construct: gene ntt1; full-length, N-terminal His tag (pET16b)
T1 sequence (Q70GF7 1-513): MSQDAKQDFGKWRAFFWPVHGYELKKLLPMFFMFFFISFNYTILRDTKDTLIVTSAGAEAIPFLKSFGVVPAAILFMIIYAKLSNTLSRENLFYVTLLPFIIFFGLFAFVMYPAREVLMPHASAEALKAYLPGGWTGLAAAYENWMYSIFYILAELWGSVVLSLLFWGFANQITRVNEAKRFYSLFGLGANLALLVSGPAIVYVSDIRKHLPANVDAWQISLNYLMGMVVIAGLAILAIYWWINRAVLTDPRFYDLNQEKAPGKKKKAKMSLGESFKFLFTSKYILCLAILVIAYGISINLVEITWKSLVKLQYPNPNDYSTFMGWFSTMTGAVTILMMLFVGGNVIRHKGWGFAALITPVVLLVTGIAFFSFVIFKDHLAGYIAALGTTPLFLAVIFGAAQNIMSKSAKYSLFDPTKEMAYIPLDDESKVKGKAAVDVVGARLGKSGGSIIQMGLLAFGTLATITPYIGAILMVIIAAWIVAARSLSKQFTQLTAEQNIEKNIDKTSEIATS

B1: PamNTT1 (Candidatus Protochlamydia amoebophila UWE25) (protein)
chain: T1 sequence (Q70GF7 1-513)
notes: full-length, N-terminal His tag (pET16b)

Key:
[1] = target: T1, PamNTT1; experiment: [α[…]]ADP uptake into proteoliposomes, anion exchange separation; assay type: biochemical; conditions: apparent; ADP import in homo-exchange with 10 mM luminal ADP; pH 7.5; 30 °C; labelled compound
[2] = substrate: Nc1ncnc2c1ncn2[C@@H]1O[C@H](COP(=O)(O)OP(=O)(O)OP(=O)(O)O)[C@@H](O)[C@H]1O; experiment: purified protein; assay type: biochemical, Candidatus Protochlamydia amoebophila; conditions: apparent, ATP import in exchange with 10 mM luminal ADP, pH 7.5, 30 °C, labelled compound

Molecule	K M [1]	Km [2] [µM]
Nc1ncnc2c1ncn2[C@@H]1O[C@H](COP(=O)(O)OP(=O)(O)O)[C@@H](O)[C@H]1O [ADP]	Approximately equivalent K M values were estimated for the ADPim/ADPex and ATPim/ATPex homo-exchange mode	–
B1	–	17
